A short description of the data set: Identification of Columbia Blue in release media by LC/MS (stability). The conditions noted are these: water at room temperature and PBS pH 7.4 at 37° C., 16 week release experiments. Type of data set: physicochemical. On the procedure:
The concentration of Columbia Blue was determined using Liquid Chromatography/Mass Spectroscopy (LC/MS) (Agilent Technologies 6130 Quadrupole LC/MS), and the Columbia Blue was identified using mass spectroscopy. The column used was a Restek Ultra C18, 5 μm, 250×4.6 mm. The mobile phase consisted of 60% acetonitrile and 40% water at a flow rate of 1.0 ml/min. The concentration was determined using UV detection at a wavelength of 374 nm.
A model pesticide, Columbia Blue, was chosen following Briggs's “rule of 3” (Briggs, G. G., Uptake of Agrochemicals & Pharmaceuticals ‘Predicting uptake & movement of agrochemicals from physical properties’, in SCI Meeting. 1997) and Clarke-Delaney's “guide of 2” (Clarke, E. D. and J. S. Delaney, Designing Drugs and Crop Protectants: Processes, Problems and Solutions, ed. D. L. M. Ford, J. Dearden, H. V. de Waterbeemd. 2003: Blackwell Publishing, Malden). During the release measurements, Columbia Blue was identified by the LC/MS. The retention time of Columbia Blue of HPLC spectrum remained unchanged at 9.8 minutes.

For the substance Columbia Blue, the “degradation of Columbia Blue in the release media” value is listed as “did not degrade”.

Values taken from US9861096B2, “Biodegradable chemical delivery system” (Cornell University, priority 2008, dated 2018).
